Laboratory results from patent publication US8802597B2, “Herbicidal pyrimidines” (E I du Pont de Nemours and Company, priority 2003, dated 2014).

Tests used:
Test in all cases: Test C pre/postemergence
Assay type in all cases: in vivo
Conditions in all cases: Postemergence
[1] = tested on: Surinam grass (Brachiaria decumbens)
Method in brief: (§1)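 Percent control is a visual rating (0 none, 100 complete) taken against untreated plants after 12 to 14 days of greenhouse growth. Applications were made preemergence to seeded pots and postemergence to plants at the 1- to 4-leaf stage, in a non-phytotoxic surfactant-containing solvent.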

[2] = tested on: morningglory (Ipomoea coccinea)
Method in brief: as §1

[3] = tested on: giant foxtail (Setaria faberii)
Method in brief: as §1

[4] = tested on: velvetleaf (Abutilon theophrasti)
Method in brief: as §1

kochia (Kochia scoparia) = tested on: kochia (Kochia scoparia)
Method in brief: as §1

[5] = tested on: woolly cupgrass (Eriochloa villosa)
Method in brief: as §1

[6] = tested on: yellow nutsedge (Cyperus esculentus)
Method in brief: as §1

[7] = tested on: cocklebur (Xanthium strumarium)
Method in brief: as §1

[8] = tested on: pigweed (Amaranthus retroflexus)
Method in brief: as §1

[9] = tested on: crabgrass (Digitaria sanguinalis)
Method in brief: as §1

[10] = tested on: johnsongrass (Sorghum halepense)
Method in brief: as §1

[11] = 125 g ai/ha, scale 0 to 100 (0 no effect, 100 complete control)

CCOC(=O)c1nc(-c2ccc(Br)cc2)nc(N)c1Cl [Compound 94, ethyl 6-amino-2-(4-bromophenyl)-5-chloro-4-pyrimidinecarboxylate]
pest or weed control at 125 g/ha ([1]; Urochloa decumbens, post-emergence, 125 g ai/ha, scale 0 to 100 (0 no effect, 100 complete control), read-out: Surinam Grass plant response rating): 100% | pest or weed control at 16 g/ha ([1]; Urochloa decumbens, post-emergence, 16 g ai/ha, read-out: Plant response rating (scale of 0 to 100), Surinam Grass): 50% | pest or weed control at 31 g/ha ([1]; Urochloa decumbens, post-emergence, 31 g ai/ha, read-out: Plant response rating (scale of 0 to 100), Surinam Grass): 60% | pest or weed control at 62 g/ha ([1]; Urochloa decumbens, post-emergence, 62 g ai/ha, read-out: Plant response rating (scale of 0 to 100), Surinam Grass): 90% | pest or weed control at 16 g/ha ([2]; Ipomoea, post-emergence, 16 g ai/ha, read-out: Plant response rating (scale of 0 to 100), Morningglory): 60% | pest or weed control at 31 g/ha ([2]; Ipomoea, post-emergence, 31 g ai/ha, read-out: Plant response rating (scale of 0 to 100), Morningglory): 80% | pest or weed control at 62 g/ha ([2]; Ipomoea, post-emergence, 62 g ai/ha, read-out: Plant response rating (scale of 0 to 100), Morningglory): 90% | pest or weed control at 125 g/ha ([2]; Ipomoea, post-emergence, 125 g ai/ha, scale 0 to 100 (0 no effect, 100 complete control), read-out: Morningglory plant response rating): 100% | pest or weed control at 125 g/ha ([3]; Setaria faberi, post-emergence, 125 g ai/ha, scale 0 to 100 (0 no effect, 100 complete control), read-out: Foxtail, Giant plant response rating): 80% | pest or weed control at 16 g/ha ([3]; Setaria faberi, post-emergence, 16 g ai/ha, read-out: Plant response rating (scale of 0 to 100), Foxtail, Giant): 30% | pest or weed control at 31 g/ha ([3]; Setaria faberi, post-emergence, 31 g ai/ha, read-out: Plant response rating (scale of 0 to 100), Foxtail, Giant): 65% | pest or weed control at 62 g/ha ([3]; Setaria faberi, post-emergence, 62 g ai/ha, read-out: Plant response rating (scale of 0 to 100), Foxtail, Giant): 80% | pest or weed control at 16 g/ha ([4]; Abutilon theophrasti, post-emergence, 16 g ai/ha, read-out: Plant response rating (scale of 0 to 100), Velvetleaf): 75% | pest or weed control at 31 g/ha ([4]; Abutilon theophrasti, post-emergence, 31 g ai/ha, read-out: Plant response rating (scale of 0 to 100), Velvetleaf): 90% | pest or weed control at 62 g/ha ([4]; Abutilon theophrasti, post-emergence, 62 g ai/ha, read-out: Plant response rating (scale of 0 to 100), Velvetleaf): 95% | pest or weed control at 125 g/ha ([4]; Abutilon theophrasti, post-emergence, 125 g ai/ha, scale 0 to 100 (0 no effect, 100 complete control), read-out: Velvetleaf plant response rating): 95% | pest or weed control at 16 g/ha (kochia (Kochia scoparia); Bassia scoparia, post-emergence, 16 g ai/ha, read-out: Plant response rating (scale of 0 to 100), Kochia): 75% | pest or weed control at 31 g/ha (kochia (Kochia scoparia); Bassia scoparia, post-emergence, 31 g ai/ha, read-out: Plant response rating (scale of 0 to 100), Kochia): 90% | pest or weed control at 62 g/ha (kochia (Kochia scoparia); Bassia scoparia, post-emergence, 62 g ai/ha, read-out: Plant response rating (scale of 0 to 100), Kochia): 95% | pest or weed control at 125 g/ha (kochia (Kochia scoparia); Bassia scoparia, post-emergence, 125 g ai/ha, scale 0 to 100 (0 no effect, 100 complete control), read-out: Kochia plant response rating): 100% | pest or weed control at 16 g/ha ([5]; Eriochloa villosa, post-emergence, 16 g ai/ha, read-out: Plant response rating (scale of 0 to 100), Cupgrass, Woolly): 60% | pest or weed control at 31 g/ha ([5]; Eriochloa villosa, post-emergence, 31 g ai/ha, read-out: Plant response rating (scale of 0 to 100), Cupgrass, Woolly): 80% | pest or weed control at 62 g/ha ([5]; Eriochloa villosa, post-emergence, 62 g ai/ha, read-out: Plant response rating (scale of 0 to 100), Cupgrass, Woolly): 90% | pest or weed control at 125 g/ha ([5]; Eriochloa villosa, post-emergence, 125 g ai/ha, scale 0 to 100 (0 no effect, 100 complete control), read-out: Cupgrass, Woolly plant response rating): 90% | pest or weed control at 16 g/ha ([6]; Cyperus, post-emergence, 16 g ai/ha, read-out: Plant response rating (scale of 0 to 100), Nutsedge, Yellow): 55% | pest or weed control at 31 g/ha ([6]; Cyperus, post-emergence, 31 g ai/ha, read-out: Plant response rating (scale of 0 to 100), Nutsedge, Yellow): 60% | pest or weed control at 62 g/ha ([6]; Cyperus, post-emergence, 62 g ai/ha, read-out: Plant response rating (scale of 0 to 100), Nutsedge, Yellow): 70% | pest or weed control at 125 g/ha ([6]; Cyperus, post-emergence, 125 g ai/ha, scale 0 to 100 (0 no effect, 100 complete control), read-out: Nutsedge, Yellow plant response rating): 75% | pest or weed control at 16 g/ha ([7]; Xanthium strumarium, post-emergence, 16 g ai/ha, read-out: Plant response rating (scale of 0 to 100), Cocklebur): 75% | pest or weed control at 31 g/ha ([7]; Xanthium strumarium, post-emergence, 31 g ai/ha, read-out: Plant response rating (scale of 0 to 100), Cocklebur): 80% | pest or weed control at 62 g/ha ([7]; Xanthium strumarium, post-emergence, 62 g ai/ha, read-out: Plant response rating (scale of 0 to 100), Cocklebur): 90% | pest or weed control at 125 g/ha ([7]; Xanthium strumarium, post-emergence, 125 g ai/ha, scale 0 to 100 (0 no effect, 100 complete control), read-out: Cocklebur plant response rating): 100% | pest or weed control at 16 g/ha ([8]; Amaranthus retroflexus, post-emergence, 16 g ai/ha, read-out: Plant response rating (scale of 0 to 100), Pigweed): 95% | pest or weed control at 31 g/ha ([8]; Amaranthus retroflexus, post-emergence, 31 g ai/ha, read-out: Plant response rating (scale of 0 to 100), Pigweed): 100% | pest or weed control at 62 g/ha ([8]; Amaranthus retroflexus, post-emergence, 62 g ai/ha, read-out: Plant response rating (scale of 0 to 100), Pigweed): 100% | pest or weed control at 125 g/ha ([8]; Amaranthus retroflexus, post-emergence, 125 g ai/ha, scale 0 to 100 (0 no effect, 100 complete control), read-out: Pigweed plant response rating): 100% | pest or weed control at 16 g/ha ([9]; Digitaria sanguinalis, post-emergence, 16 g ai/ha, read-out: Plant response rating (scale of 0 to 100), Crabgrass): 70% | pest or weed control at 31 g/ha ([9]; Digitaria sanguinalis, post-emergence, 31 g ai/ha, read-out: Plant response rating (scale of 0 to 100), Crabgrass): 80% | pest or weed control at 62 g/ha ([9]; Digitaria sanguinalis, post-emergence, 62 g ai/ha, read-out: Plant response rating (scale of 0 to 100), Crabgrass): 85% | pest or weed control at 125 g/ha ([9]; Digitaria sanguinalis, post-emergence, 125 g ai/ha, scale 0 to 100 (0 no effect, 100 complete control), read-out: Crabgrass plant response rating): 85% | pest or weed control at 16 g/ha ([10]; Sorghum halepense, post-emergence, 16 g ai/ha, read-out: Plant response rating (scale of 0 to 100), Johnsongrass): 55% | pest or weed control at 31 g/ha ([10]; Sorghum halepense, post-emergence, 31 g ai/ha, read-out: Plant response rating (scale of 0 to 100), Johnsongrass): 60% | pest or weed control at 62 g/ha ([10]; Sorghum halepense, post-emergence, 62 g ai/ha, read-out: Plant response rating (scale of 0 to 100), Johnsongrass): 75% | pest or weed control at 125 g/ha ([10]; Sorghum halepense, post-emergence, 125 g ai/ha, scale 0 to 100 (0 no effect, 100 complete control), read-out: Johnsongrass plant response rating): 90%

Nc1nc(-c2ccc(Br)cc2)nc(C(=O)O)c1Br [Compound 136]
Plant response rating (scale of 0 to 100), Surinam Grass ([1]; 16 g ai/ha): 55 | Plant response rating (scale of 0 to 100), Surinam Grass ([1]; 31 g ai/ha): 65 | Plant response rating (scale of 0 to 100), Surinam Grass ([1]; 62 g ai/ha): 65 | Surinam Grass plant response rating [1, 11]: 70 | Plant response rating (scale of 0 to 100), Morningglory ([2]; 16 g ai/ha): 65 | Plant response rating (scale of 0 to 100), Morningglory ([2]; 31 g ai/ha): 85 | Plant response rating (scale of 0 to 100), Morningglory ([2]; 62 g ai/ha): 90 | Morningglory plant response rating [2, 11]: 100 | Plant response rating (scale of 0 to 100), Foxtail, Giant ([3]; 16 g ai/ha): 65 | Plant response rating (scale of 0 to 100), Foxtail, Giant ([3]; 31 g ai/ha): 75 | Plant response rating (scale of 0 to 100), Foxtail, Giant ([3]; 62 g ai/ha): 75 | Foxtail, Giant plant response rating [3, 11]: 85 | Plant response rating (scale of 0 to 100), Velvetleaf ([4]; 16 g ai/ha): 85 | Plant response rating (scale of 0 to 100), Velvetleaf ([4]; 31 g ai/ha): 85 | Plant response rating (scale of 0 to 100), Velvetleaf ([4]; 62 g ai/ha): 90 | Velvetleaf plant response rating [4, 11]: 95 | Plant response rating (scale of 0 to 100), Kochia (kochia (Kochia scoparia); 16 g ai/ha): 75 | Plant response rating (scale of 0 to 100), Kochia (kochia (Kochia scoparia); 31 g ai/ha): 80 | Plant response rating (scale of 0 to 100), Kochia (kochia (Kochia scoparia); 62 g ai/ha): 90 | Kochia plant response rating (kochia (Kochia scoparia); [11]): 90 | Plant response rating (scale of 0 to 100), Cupgrass, Woolly ([5]; 16 g ai/ha): 55 | Plant response rating (scale of 0 to 100), Cupgrass, Woolly ([5]; 31 g ai/ha): 65 | Plant response rating (scale of 0 to 100), Cupgrass, Woolly ([5]; 62 g ai/ha): 70 | Cupgrass, Woolly plant response rating [5, 11]: 70 | Plant response rating (scale of 0 to 100), Nutsedge, Yellow ([6]; 16 g ai/ha): 60 | Plant response rating (scale of 0 to 100), Nutsedge, Yellow ([6]; 31 g ai/ha): 65 | Plant response rating (scale of 0 to 100), Nutsedge, Yellow ([6]; 62 g ai/ha): 75 | Nutsedge, Yellow plant response rating [6, 11]: 75 | Plant response rating (scale of 0 to 100), Cocklebur ([7]; 16 g ai/ha): 95 | Plant response rating (scale of 0 to 100), Cocklebur ([7]; 31 g ai/ha): 100 | Plant response rating (scale of 0 to 100), Cocklebur ([7]; 62 g ai/ha): 100 | Cocklebur plant response rating [7, 11]: 100 | Plant response rating (scale of 0 to 100), Pigweed ([8]; 16 g ai/ha): 90 | Plant response rating (scale of 0 to 100), Pigweed ([8]; 31 g ai/ha): 100 | Plant response rating (scale of 0 to 100), Pigweed ([8]; 62 g ai/ha): 100 | Pigweed plant response rating [8, 11]: 100 | Plant response rating (scale of 0 to 100), Crabgrass ([9]; 16 g ai/ha): 60 | Plant response rating (scale of 0 to 100), Crabgrass ([9]; 31 g ai/ha): 75 | Plant response rating (scale of 0 to 100), Crabgrass ([9]; 62 g ai/ha): 75 | Crabgrass plant response rating [9, 11]: 75 | Plant response rating (scale of 0 to 100), Johnsongrass ([10]; 16 g ai/ha): 60 | Plant response rating (scale of 0 to 100), Johnsongrass ([10]; 31 g ai/ha): 85 | Plant response rating (scale of 0 to 100), Johnsongrass ([10]; 62 g ai/ha): 85 | Johnsongrass plant response rating [10, 11]: 95
